Columns and labels:
human AR [1] = target: T1, human AR (Homo sapiens, UniProt P10275); experiment: Co-transfection assay, AR agonist activity (CV-1 cells, MTV-LUC reporter); type: cell-based; conditions: CV-1 cells; for EC50: agonist potency EC50; for AR Agonist CV-1 Cells Efficacy (%): percent maximal response relative to reference agonist DHT
T1 sequence (P10275 1-920): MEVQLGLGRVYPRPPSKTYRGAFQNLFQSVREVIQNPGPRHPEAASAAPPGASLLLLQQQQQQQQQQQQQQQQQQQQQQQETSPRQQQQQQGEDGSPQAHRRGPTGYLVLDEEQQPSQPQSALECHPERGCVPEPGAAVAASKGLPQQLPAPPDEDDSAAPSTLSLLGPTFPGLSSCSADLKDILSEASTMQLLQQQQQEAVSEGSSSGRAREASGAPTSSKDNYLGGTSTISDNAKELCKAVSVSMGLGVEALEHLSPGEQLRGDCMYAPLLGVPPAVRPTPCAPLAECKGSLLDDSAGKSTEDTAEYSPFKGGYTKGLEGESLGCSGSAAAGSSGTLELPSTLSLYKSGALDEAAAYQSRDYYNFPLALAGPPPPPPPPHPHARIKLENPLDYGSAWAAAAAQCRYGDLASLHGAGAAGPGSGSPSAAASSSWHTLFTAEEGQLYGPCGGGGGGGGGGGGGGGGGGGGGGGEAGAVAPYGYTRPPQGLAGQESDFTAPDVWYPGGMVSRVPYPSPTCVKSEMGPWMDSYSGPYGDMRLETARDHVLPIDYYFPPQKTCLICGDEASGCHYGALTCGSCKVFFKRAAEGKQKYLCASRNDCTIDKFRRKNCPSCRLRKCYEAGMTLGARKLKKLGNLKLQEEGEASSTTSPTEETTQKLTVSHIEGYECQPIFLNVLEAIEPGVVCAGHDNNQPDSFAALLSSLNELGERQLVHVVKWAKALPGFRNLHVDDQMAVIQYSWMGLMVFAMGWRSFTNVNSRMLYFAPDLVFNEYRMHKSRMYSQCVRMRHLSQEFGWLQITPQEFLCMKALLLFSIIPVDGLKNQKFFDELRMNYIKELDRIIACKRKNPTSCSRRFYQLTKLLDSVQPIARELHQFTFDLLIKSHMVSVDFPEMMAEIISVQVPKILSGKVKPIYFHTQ

human AR [2] = target: T1, human AR; experiment: AR whole cell competitive binding assay (COS-1 cells, 3H-DHT); conditions: 1 nM 3H-DHT, Cheng-Prusoff
Procedure: AR Binding: For the whole cell binding assay, COS-1 cells in 96-well microtiter plates containing DMEM-10% FBS were transfected as described above with the following plasmid DNA: pRShAR (2 ng/well), pRS-β-Gal (50 ng/well) and pGEM (48 ngcwell). Six hours after transfection, media was removed, the cells were washed with PBS and fresh media was added. The next day, the media was changed to DMEM-serum free to remove any endogenous ligand that might be complexed with the receptor in the cells.
Three replicates were used for each sample. […] The remaining media was removed, the cells were washed three times with PBS to remove unbound ligand, and cells were lysed with a Triton X-100-based buffer.
For the saturation analyses, the difference between the total binding and the nonspecific binding, normalized by the β-Gal rate, was defined as specific binding. […] The Ki values were determined by application of the Cheng-Prusoff equation to the IC50 values, where:
After correcting for non-specific binding, IC50 values were determined. […] The IC50 value was determined graphically from a log-logit plot of the data. The Ki values were determined by application of the Cheng-Prusoff equivuation to the IC50 values, the labeled ligand concentration and the Kd of the labeled ligand.

human AR [3] = target: T1, human AR; experiment: Co-transfection assay, AR antagonist activity (CV-1 cells, in presence of DHT); type: cell-based; conditions: for AR Antagonist CV-1 Cells Efficacy (%): percent maximal inhibition, DHT at its EC50; for IC50: read-out: AR Antagonist CV-1 Cells Potency

O=c1cc(C(F)(F)F)c2cc(N3CCCCC3CCOCc3ccc(C(F)(F)F)cc3)ccc2[nH]1 (racemic) [Compound 449, (±)-6-(2-(4-Trifluoromethyl)benzyloxyethyl-1-piperidino)-4-trifluoromethyl-2(1H)-quinolinone]
EC50 (human AR [1]): 16 nM | AR Agonist CV-1 Cells Efficacy (%) (human AR [1]): 83% | Ki (human AR [2]): 8.4 nM | AR Antagonist CV-1 Cells Efficacy (%) (human AR [3]): na (na = not active (i.e. efficacy of <20 and potency of >10,000)) | IC50 (human AR [3]): > 10000 nM

CCCCC1(O)C=C(c2ccc3c(c2)C(C)(C)OC(=O)N3)CCC1 (racemic) [Compound 694, (±)-6-(3-Butyl-3-hydroxy-1-)cyclohexenyl-1,4-dihydro-4,4-dimethyl-1,3-benzo[d]oxazin-2-one]
EC50 (human AR [1]): 935 nM | AR Agonist CV-1 Cells Efficacy (%) (human AR [1]): 25% | Ki (human AR [2]): > 1000 nM | AR Antagonist CV-1 Cells Efficacy (%) (human AR [3]): 90% | IC50 (human AR [3]): 64 nM

CC1OC(=O)Nc2ccc(C3=CCCCC3)cc21 (racemic) [Compound 698, (±)-6-(1-Cyclohexenyl)-1,4-dihydro-4-methyl-1,3-benzo[d]oxazin-2-one]
EC50 (human AR [1]): > 10000 nM | Ki (human AR [2]): 32 nM | AR Antagonist CV-1 Cells Efficacy (%) (human AR [3]): 84% | IC50 (human AR [3]): 17 nM

CC(C)CN(CC(C)C)c1ccc2[nH]c(=O)cc(C(F)(F)F)c2c1 [Compound 221, 6-Diisobutylamino-4-trifluoromethyl-2(1H)-quinolinone]
EC50 (human AR [1]): 23 nM | AR Agonist CV-1 Cells Efficacy (%) (human AR [1]): 114% | Ki (human AR [2]): 147 nM | AR Antagonist CV-1 Cells Efficacy (%) (human AR [3]): na (na = not active (i.e. efficacy of <20 and potency of >10,000)) | IC50 (human AR [3]): > 10000 nM

O=c1cc(C(F)(F)F)c2cc(N(CC(F)(F)C(F)(F)F)CC(F)(F)C(F)(F)F)ccc2[nH]1 [Compound 224, 6-(bis-2,2,3,3,3-Pentafluoropropyl)amino-4-trifluoromethyl-2(1H)-quinolinone]
EC50 (human AR [1]): 41 nM | AR Agonist CV-1 Cells Efficacy (%) (human AR [1]): 108% | Ki (human AR [2]): 206 nM | AR Antagonist CV-1 Cells Efficacy (%) (human AR [3]): na (na = not active (i.e. efficacy of <20 and potency of >10,000)) | IC50 (human AR [3]): > 10000 nM

O=c1cc(C(F)(F)F)c2cc(N(CC(F)(F)Cl)CC(F)(F)Cl)ccc2[nH]1 [Compound 225, 6-(bis-2-Chloro-2,2-difluoroethyl)amino-4-trifluoromethyl-2(1H)-quinolinone]
EC50 (human AR [1]): 0.4 nM | AR Agonist CV-1 Cells Efficacy (%) (human AR [1]): 90% | Ki (human AR [2]): 0.9 nM | AR Antagonist CV-1 Cells Efficacy (%) (human AR [3]): na (na = not active (i.e. efficacy of <20 and potency of >10,000)) | IC50 (human AR [3]): > 10000 nM

O=c1cc(C(F)(F)F)c2cc(NCC(Cl)(Cl)Cl)ccc2[nH]1 [Compound 227, 6-(N-2,2,2-Trichloroethyl)amino-4-trifluoromethyl-2(1H)-quinolinone]
EC50 (human AR [1]): > 10000 nM | Ki (human AR [2]): 38 nM | AR Antagonist CV-1 Cells Efficacy (%) (human AR [3]): 73% | IC50 (human AR [3]): 14 nM

O=c1cc(C(F)(F)F)c2cc(N(CC(Cl)Cl)CC(Cl)Cl)ccc2[nH]1 [Compound 232, 6-(bis-N-2,2-Dichloroethyl)amino-4-trifluoromethyl-2(1H)-quinolinone]
EC50 (human AR [1]): 3.4 nM | AR Agonist CV-1 Cells Efficacy (%) (human AR [1]): 55% | Ki (human AR [2]): 7.6 nM | AR Antagonist CV-1 Cells Efficacy (%) (human AR [3]): na (na = not active (i.e. efficacy of <20 and potency of >10,000)) | IC50 (human AR [3]): > 10000 nM

CCCN(CC)c1ccc2[nH]c(=O)cc(C(F)(F)F)c2c1 [Compound 238, 6-(N-Ethyl-N-propyl)amino-4-trifluoromethyl-2(1H)-quinolinone]
EC50 (human AR [1]): 5.3 nM | AR Agonist CV-1 Cells Efficacy (%) (human AR [1]): 77% | Ki (human AR [2]): 17 nM | AR Antagonist CV-1 Cells Efficacy (%) (human AR [3]): na (na = not active (i.e. efficacy of <20 and potency of >10,000)) | IC50 (human AR [3]): > 10000 nM

CCN(CC(C)C)c1ccc2[nH]c(=O)cc(C(F)(F)F)c2c1 [Compound 241, 6-(N-Ethyl-N-isobutyl)amino-4-trifluoromethyl-2(1H)-quinolinone]
EC50 (human AR [1]): 2.9 nM | AR Agonist CV-1 Cells Efficacy (%) (human AR [1]): 73% | Ki (human AR [2]): 30 nM | AR Antagonist CV-1 Cells Efficacy (%) (human AR [3]): na (na = not active (i.e. efficacy of <20 and potency of >10,000)) | IC50 (human AR [3]): > 10000 nM

CCCN(CC1CC1)c1ccc2[nH]c(=O)cc(C(F)(F)F)c2c1 [Compound 254, 6-(N-Propyl-N-cyclopropylmethyl)amino-4-trifluoromethyl-2(1H)-quinolinone]
EC50 (human AR [1]): 0.9 nM | AR Agonist CV-1 Cells Efficacy (%) (human AR [1]): 78% | Ki (human AR [2]): 12 nM | AR Antagonist CV-1 Cells Efficacy (%) (human AR [3]): na (na = not active (i.e. efficacy of <20 and potency of >10,000)) | IC50 (human AR [3]): > 10000 nM

CC(C)CN(CC(F)(F)F)c1ccc2[nH]c(=O)cc(C(F)(F)F)c2c1 [Compound 259, 6-(N-2,2,2-trifluoroethyl-N-isobutyl)amino-4-trifluoromethyl-2(1H)-quinolinone]
EC50 (human AR [1]): 1.9 nM | AR Agonist CV-1 Cells Efficacy (%) (human AR [1]): 97% | Ki (human AR [2]): 6.3 nM | AR Antagonist CV-1 Cells Efficacy (%) (human AR [3]): na (na = not active (i.e. efficacy of <20 and potency of >10,000)) | IC50 (human AR [3]): > 10000 nM

O=c1cc(C(F)(F)F)c2cc(N(Cc3ccccc3)Cc3ccccc3)ccc2[nH]1 [Compound 272, 6-(bis-N,N-Benzyl)amino-4-trifluoromethyl-2(1H)-quinolinone]
EC50 (human AR [1]): > 10000 nM | Ki (human AR [2]): > 1000 nM | AR Antagonist CV-1 Cells Efficacy (%) (human AR [3]): 67% | IC50 (human AR [3]): 7 nM

C=CCN(CC=C)c1ccc2[nH]c(=O)cc(C(F)(F)F)c2c1 [Compound 280, 6-Diallylamino-4-trifluoromethyl-2(1H)-quinolinone]
EC50 (human AR [1]): 2.2 nM | AR Agonist CV-1 Cells Efficacy (%) (human AR [1]): 78% | Ki (human AR [2]): 2.4 nM | AR Antagonist CV-1 Cells Efficacy (%) (human AR [3]): na (na = not active (i.e. efficacy of <20 and potency of >10,000)) | IC50 (human AR [3]): > 10000 nM

C=CCN(CC1CC1)c1ccc2[nH]c(=O)cc(C(F)(F)F)c2c1 [Compound 285, 6-(N-Allyl-N-cyclopropylmethyl)amino-4-trifluoromethyl-2(1H)-quinolinone]
EC50 (human AR [1]): 1 nM | AR Agonist CV-1 Cells Efficacy (%) (human AR [1]): 111% | Ki (human AR [2]): 6.2 nM | AR Antagonist CV-1 Cells Efficacy (%) (human AR [3]): na (na = not active (i.e. efficacy of <20 and potency of >10,000)) | IC50 (human AR [3]): > 10000 nM

CS(=O)(=O)N(CC(F)(F)F)c1ccc2[nH]c(=O)cc(C(F)(F)F)c2c1 [Compound 295, 6-(N-2,2,2-Trifluoroethyl-N-methylsufonyl)amino-4-trifluoromethyl-2(1H)-quinolinone]
EC50 (human AR [1]): 50 nM | AR Agonist CV-1 Cells Efficacy (%) (human AR [1]): 30% | Ki (human AR [2]): 86 nM | AR Antagonist CV-1 Cells Efficacy (%) (human AR [3]): 49% | IC50 (human AR [3]): 3.6 nM

Cn1c(=O)cc(C(F)(F)F)c2cc(N(CC(F)(F)F)CC(F)(F)F)ccc21 [Compound 297, 1-Methyl-6-(bis-2,2,2-trifluoroethyl)amino-4-trifluoromethyl-2(1H)-quinolinone]
EC50 (human AR [1]): 22 nM | AR Agonist CV-1 Cells Efficacy (%) (human AR [1]): 43% | Ki (human AR [2]): 58 nM | AR Antagonist CV-1 Cells Efficacy (%) (human AR [3]): 43% | IC50 (human AR [3]): 3.2 nM

CC(C)(C)Nc1ccc2[nH]c(=O)cc(C(F)(F)F)c2c1 [Compound 307, 6-tert-Butylamino-4-trifluoromethyl-2(1H)-quinolinone]
EC50 (human AR [1]): > 10000 nM | Ki (human AR [2]): 61 nM | AR Antagonist CV-1 Cells Efficacy (%) (human AR [3]): 43% | IC50 (human AR [3]): 3.2 nM

O=c1cc(C(F)(F)F)c2cc(N3CCCCC3)ccc2[nH]1 [Compound 311, 6-(1-Piperidinyl)-4-trifluoromethyl-2(1H)-quinolinone]
EC50 (human AR [1]): 143 nM | AR Agonist CV-1 Cells Efficacy (%) (human AR [1]): 42% | Ki (human AR [2]): 12 nM | AR Antagonist CV-1 Cells Efficacy (%) (human AR [3]): 38% | IC50 (human AR [3]): 13 nM

C[C@@H]1CC[C@H](C)N1c1ccc2[nH]c(=O)cc(C(F)(F)F)c2c1 [Compound 328, 6-(2,5-cis-Dimethyl-1-pyrrolidino)-4-trifluoromethyl-2(1H)-quinolinone]
EC50 (human AR [1]): 1.7 nM | AR Agonist CV-1 Cells Efficacy (%) (human AR [1]): 93% | Ki (human AR [2]): 48 nM | AR Antagonist CV-1 Cells Efficacy (%) (human AR [3]): na (na = not active (i.e. efficacy of <20 and potency of >10,000)) | IC50 (human AR [3]): > 10000 nM

O=c1cc(C(F)(F)F)c2cc(N3CCCCCC3)ccc2[nH]1 [Compound 330, 6-(1-Azepano)-4-trifluoromethyl-2(1H)-quinolinone]
EC50 (human AR [1]): 3.9 nM | AR Agonist CV-1 Cells Efficacy (%) (human AR [1]): 81% | Ki (human AR [2]): 55 nM | AR Antagonist CV-1 Cells Efficacy (%) (human AR [3]): na (na = not active (i.e. efficacy of <20 and potency of >10,000)) | IC50 (human AR [3]): > 10000 nM

C[C@@H]1C=C[C@H](C)N1c1ccc2[nH]c(=O)cc(C(F)(F)F)c2c1 [Compound 332, 6-(2,5-cis-Dimethyl-1-pyrrolino)-4-trifluoromethyl-2(1H)-quinolinone]
EC50 (human AR [1]): 14 nM | AR Agonist CV-1 Cells Efficacy (%) (human AR [1]): 121% | Ki (human AR [2]): 19 nM | AR Antagonist CV-1 Cells Efficacy (%) (human AR [3]): na (na = not active (i.e. efficacy of <20 and potency of >10,000)) | IC50 (human AR [3]): > 10000 nM
